For assay [1], the target named is T1, T. aurantiacus GH61A polypeptide (Thermoascus aurantiacus, UniProt G3XAP7, N13Y). Briefly: Microcrystalline cellulose conversion assay III (Examples 12, 13), T. reesei Cel7B endoglucanase I + A. oryzae CEL3A beta-glucosidase, with and without EDTA. It is filed as biochemical. Conditions: 72 hours, 50° C. The procedure:
A 5% microcrystalline cellulose slurry was prepared by addition of 2.5 g of AVICEL® PH101 to a graduated 50 ml screw-cap conical tube followed by approximately 40 ml of deionized water. Each conical tube was then mixed thoroughly by shaking/vortexing, and adjusted to 50 ml total with deionized water and mixed again. Contents of the tube were then quickly transferred to a 100 ml beaker and stirred rapidly with a magnetic stirrer. Five hundred μl aliquots of the 5% AVICEL® slurry were pipetted into wells of a 2.0 ml 96-deepwell plate (Axygen, Union City, Calif., USA) using a 1000 μl micropipette with a wide aperture tip (end of tip cut off about 2 mm from the base). Two hundred μl of deionized water and 100 μl of 10 mM MnSO4-500 mM sodium acetate pH 5 were then added to each well. One hundred μl of either deionized water, a 1% gallic acid solution dissolved in water, or a 1% gallic acid solution containing 50 mM EDTA was added to each well. Enzyme mixtures were prepared and then added simultaneously to all wells in a volume of 100 μl, for a total of 1 ml in each reaction. […] All experiments reported were performed in triplicate.
(§1) Primary analysis of the hydrolysis reactions was performed using an AGILENT® 1100 HPLC with CHEMSTATION® software equipped with an AMINEX™ HPX-87H column. After approximately 4 days, the deep-well plate was removed from the incubator and chilled overnight to 4° C. The plate was then mixed well by inversion and briefly centrifuged 52×g in a SORVALL® RT7 centrifuge for 10 seconds. Samples were then mixed by pipetting, and 200 μl from each well were transferred to a MULTISCREEN® HV centrifuge filter plate assembly. The centrifuge filter plate assembly was centrifuged at 2000 rpm in a SORVALL® RT7 centrifuge for 20 minutes. […] Sugars were detected using a refractive index detector with quantification by integration compared to purified sugar standards.
All HPLC data processing was performed using MICROSOFT EXCEL™ software. […] In this assay only glucose was measured since beta-glucosidase was at high levels in all samples but the controls. The degree of cellulose conversion was calculated using Equation 1. Triplicate data points were averaged and standard deviation was calculated.
The microcrystalline cellulose hydrolysis assay was performed as described in Example 12.
Data were collected and analyzed, as described in Example 12, after 72 hours of incubation at 50° C.

The target in assay [2] is T1, T. aurantiacus GH61A polypeptide. Briefly: Bacterial cellulose conversion assay (Examples 15, 16). Conditions: 72 hours, 50° C. It is filed as biochemical. The procedure: Bacterial cellulose was prepared from NATA DE COCO (Huerto International Trading, Lucena City, Philippines) by extensive rinsing of one 500 ml can of cubes with water followed by homogenation for 15 minutes in 0.25 M sodium hydroxide using a WARING BLENDER® (Waring Products, Torrington, Conn., USA). The resulting slurry was pelleted at 40,000×g in a SORVALL® RT7 centrifuge. The supernatant was discarded. The pellet was then resuspended in 0.25 M sodium hydroxide and stirred overnight at 4° C. This procedure was repeated four times. Following the first washing steps, the cellulose was washed six times under similar conditions, substituting water for 0.25 M sodium hydroxide. Following the water washing, the cellulose was again homogenized for 15 minutes in a WARING BLENDER®, and adjusted to a final volume of 250 ml.
A 0.36% bacterial cellulose slurry was prepared as described in Example 14. This 0.36% slurry was thoroughly resuspended by shaking, and quickly transferred to a 100 ml beaker and stirred rapidly with a magnetic stirrer. Seven hundred μl aliquots of the bacterial cellulose slurry were pipetted into wells of a 2.0 ml 96-deepwell plate (Axygen, Union City, Calif.) using a 1000 μl micropipette with a wide aperture tip (end of tip cut off about 2 mm from the base). One hundred μl of 10 mM MnSO4-500 mM sodium acetate pH 5 was then added to each well. One hundred μl of either deionized water, a 1% gallic acid solution dissolved in water, or a 1% gallic acid solution containing 50 mM EDTA were added to each well. Enzyme mixtures were prepared and then added simultaneously to all wells in a volume of 100 μl, for a total of 1 ml in each reaction. […] All experiments reported were performed in triplicate.
as §1
All HPLC data processing was performed using MICROSOFT EXCEL™ software. […] In this assay only glucose was measured since beta-glucosidase was at high levels in all samples but the controls. Percent conversion was determined using Equation 1. Triplicate data points were averaged and standard deviation was calculated.
The bacterial cellulose hydrolysis assay was performed as described in Example 15.
Data was collected and analyzed, as described in Example 15, after 72 hours of incubation at 50° C.

[3] abbreviates: gallic acid 0.1% w/w + 5 mM EDTA, no enzymes.
Setting [4] is: gallic acid 0.1% w/w alone, no enzymes.

For `O=C(O)c1cc(O)c(O)c(O)c1` [gallic acid], the “conversion of the microcrystalline cellulose” value in assay [1] (gallic acid 0.1% w/w + 5 mM EDTA + T. aurantiacus GH61A polypeptide (5 mg/g), no other enzymes) was “no significant conversion”; in assay [1] (setting [3]), “no significant conversion”; in assay [1] (setting [4]), “no significant conversion”. The “hydrolysis of the bacterial cellulose” value in assay [2] (gallic acid 0.1% w/w + 5 mM EDTA + A. oryzae CEL3A beta-glucosidase (50 mg/g), no GH61) is “no significant hydrolysis”; in assay [2] (gallic acid 0.1% w/w + 5 mM EDTA + T. aurantiacus GH61A polypeptide (50 mg/g), no beta-glucosidase), “no significant hydrolysis”; in assay [2] (gallic acid 0.1% w/w + A. oryzae CEL3A beta-glucosidase (50 mg/g), no GH61), “no significant hydrolysis”. The “conversion of the bacterial cellulose” value in assay [2] (setting [3]) and in assay [2] (setting [4]) was “no significant conversion” in each case.

B1: T. aurantiacus GH61A polypeptide: GH61A polypeptide having cellulolytic enhancing activity (SEQ ID NO: 14), recombinantly produced in Aspergillus oryzae JaL250 (protein, listed as Thermoascus aurantiacus)
chain: MSFSKIIATAGVLASASLVAGHGFVQNIVIDGKYYGGYLVNQYPYMSNPPEVIAWSTTATDLGFVDGTGYQTPDIICHRGAKPGALTAPVSPGGTVELQWTPWPDSHHGPVINYLAPCNGDCSTVDKTQLEFFKIAESGLINDDNPPGIWASDNLIAANNSWTVTIPTTIAPGNYVLRHEIIALHSAQNQDGAQNYPQCINLQVTGGGSDNPAGTLGTALYHDTDPGILINIYQKLSSYIIPGPPLYTG
With B1, the “conversion of the microcrystalline cellulose” value in assay [1] (T. aurantiacus GH61A polypeptide (5 mg/g) + endoglucanase I + beta-glucosidase (5 mg/g each), no gallic acid) came out at 4.0±0.2%. The “conversion of microcrystalline cellulose” value in assay [1] (T. aurantiacus GH61A polypeptide (5 mg/g) alone) is reported as “no significant conversion”. Besides, the “conversion of the bacterial cellulose” value was “no significant conversion” in assay [2] (T. aurantiacus GH61A polypeptide (50 mg/g) + A. oryzae CEL3A beta-glucosidase (50 mg/g), no gallic acid) and 1.5±1.4% in assay [2] (T. aurantiacus GH61A polypeptide (50 mg/g) alone).

These data come from patent US9394555B2, “Compositions comprising a polypeptide having cellulolytic enhancing activity and a dioxy compound and uses thereof” (priority 2010, dated 2016).
